Experimental data from ChEMBL document CHEMBL1201862, “PubChem BioAssay data set” (2004).
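Five concentrations, 48 hours, 96-well plates. Here, GI50 denotes the concentration required for 50% inhibition of growth.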 Active and inactive are the calls of the source. Rule as the data show it: active = GI50 up to about 1.1 µM and inactive = higher.

Experiments:
Assay in all cases: NCI-60 cell line screen, 48 h
786-0 = test system: 786-0
EKVX = test system: EKVX
HCC 2998 = test system: HCC 2998
HOP-62 = test system: HOP-62
HT-29 = test system: HT-29
LOX IMVI = test system: LOX IMVI
MCF7 = test system: MCF7
MDA-MB-435 = test system: MDA-MB-435
NCI-H226 = test system: NCI-H226
NCI-H23 = test system: NCI-H23
NCI-H522 = test system: NCI-H522
OVCAR-4 = test system: OVCAR-4
RPMI-8226 = test system: RPMI-8226
SF-295 = test system: SF-295
SK-MEL-28 = test system: SK-MEL-28
SNB-19 = test system: SNB-19
SNB-75 = test system: SNB-75
UACC-62 = test system: UACC-62
A498 = test system: A498
UACC-257 = test system: UACC-257

SMILES	GI50 (786-0)	GI50 (EKVX)	GI50 (HCC 2998)	GI50 (HOP-62)	GI50 (HT-29)	GI50 (LOX IMVI)	GI50 (MCF7)	GI50 (MDA-MB-435)	GI50 (NCI-H226)	GI50 (NCI-H23)	GI50 (NCI-H522)	GI50 (OVCAR-4)	GI50 (RPMI-8226)	GI50 (SF-295)	GI50 (SK-MEL-28)	GI50 (SNB-19)	GI50 (SNB-75)	GI50 (UACC-62)	GI50 (A498)	GI50 (UACC-257)
COc1ccc(/C=C2\N=C(SC)NC2=O)cc1	> 100 µM (inactive)	30.4 µM (inactive)	> 100 µM (inactive)	> 100 µM (inactive)	> 100 µM (inactive)	> 100 µM (inactive)	70.8 µM (inactive)	91.8 µM (inactive)	> 100 µM (inactive)	67 µM (inactive)	69 µM (inactive)	71.1 µM (inactive)	61.8 µM (inactive)	> 100 µM (inactive)	> 100 µM (inactive)	38.5 µM (inactive)	27.2 µM (inactive)	70.3 µM (inactive)		
NC(=O)c1csc(-c2ccc(CO)o2)n1	> 100 µM (inactive)	> 100 µM (inactive)			> 100 µM (inactive)	> 100 µM (inactive)	> 100 µM (inactive)	> 100 µM (inactive)	> 100 µM (inactive)	> 100 µM (inactive)	> 100 µM (inactive)	> 100 µM (inactive)	> 100 µM (inactive)	> 100 µM (inactive)	> 100 µM (inactive)	> 100 µM (inactive)		> 100 µM (inactive)	> 100 µM (inactive)	> 100 µM (inactive)
Cc1cc([N+](=O)[O-])c(C)c(Br)c1C	> 100 µM (inactive)	70.8 µM (inactive)		> 100 µM (inactive)	> 100 µM (inactive)		> 100 µM (inactive)	> 100 µM (inactive)	> 100 µM (inactive)	> 100 µM (inactive)	> 100 µM (inactive)	> 100 µM (inactive)	> 100 µM (inactive)	> 100 µM (inactive)	> 100 µM (inactive)	> 100 µM (inactive)	25.2 µM (inactive)	> 100 µM (inactive)	> 100 µM (inactive)	> 100 µM (inactive)
COc1cc(C2SCC(=O)N2c2ccc(Oc3ccc(Cl)cc3)c(Cl)c2)cc(OC)c1OC (centres undefined)	18.3 µM (inactive)	23.6 µM (inactive)	40 µM (inactive)	20.4 µM (inactive)	16.3 µM (inactive)	17.9 µM (inactive)	36.3 µM (inactive)	16 µM (inactive)	15.8 µM (inactive)	32.8 µM (inactive)	12 µM (inactive)	42.7 µM (inactive)	29.4 µM (inactive)	16.4 µM (inactive)	16.6 µM (inactive)	34.2 µM (inactive)	17.2 µM (inactive)	16 µM (inactive)		18.1 µM (inactive)
CCOc1ncn(-c2ccc(NC(=S)NC34CC5CC(CC(C5)C3)C4)cc2)n1	13.2 µM (inactive)	> 100 µM (inactive)	> 100 µM (inactive)	35.2 µM (inactive)	80.5 µM (inactive)	> 100 µM (inactive)	> 100 µM (inactive)	> 100 µM (inactive)		> 100 µM (inactive)	99.1 µM (inactive)	22.3 µM (inactive)	> 100 µM (inactive)	48.4 µM (inactive)	61.8 µM (inactive)	46.1 µM (inactive)	25.4 µM (inactive)	38 µM (inactive)		> 100 µM (inactive)
COc1ccc(-c2csc(Cc3nc4c(Br)cc(Br)cc4c(=O)n3-c3ccc(OC)cc3)n2)cc1	28.3 µM (inactive)	> 100 µM (inactive)	> 100 µM (inactive)	> 100 µM (inactive)	48.9 µM (inactive)	> 100 µM (inactive)	63.1 µM (inactive)	15.9 µM (inactive)	> 100 µM (inactive)	96.2 µM (inactive)		> 100 µM (inactive)		59.4 µM (inactive)	24.3 µM (inactive)	18.9 µM (inactive)	> 100 µM (inactive)	53.3 µM (inactive)	45.3 µM (inactive)	> 100 µM (inactive)
Cc1ccc(N2CCN(CCC(=O)O)CC2)cc1	> 100 µM (inactive)	> 100 µM (inactive)		> 100 µM (inactive)	> 100 µM (inactive)	> 100 µM (inactive)	> 100 µM (inactive)	> 100 µM (inactive)	> 100 µM (inactive)	> 100 µM (inactive)	> 100 µM (inactive)	> 100 µM (inactive)	> 100 µM (inactive)	> 100 µM (inactive)	> 100 µM (inactive)	> 100 µM (inactive)	> 100 µM (inactive)	> 100 µM (inactive)	> 100 µM (inactive)	> 100 µM (inactive)
COc1cc2c(c(OC)c1OC)C(=O)[C@H]1OC(=O)N[C@@H]21	> 100 µM (inactive)		> 100 µM (inactive)	> 100 µM (inactive)	> 100 µM (inactive)	> 100 µM (inactive)	> 100 µM (inactive)	> 100 µM (inactive)	> 100 µM (inactive)	> 100 µM (inactive)		> 100 µM (inactive)	> 100 µM (inactive)	> 100 µM (inactive)	> 100 µM (inactive)	> 100 µM (inactive)	> 100 µM (inactive)	> 100 µM (inactive)	> 100 µM (inactive)	> 100 µM (inactive)
CC(=O)c1c2c(cc3c1CC1(C3)Cc3cc4c(c(C(=O)O)c3C1)CCCC4)CCCC2.CC(N)c1ccccc1 (centres undefined)	34.4 µM (inactive)	26.4 µM (inactive)	34.5 µM (inactive)	21.6 µM (inactive)	34.1 µM (inactive)	35.5 µM (inactive)	29.1 µM (inactive)	54.8 µM (inactive)		42 µM (inactive)	46.1 µM (inactive)	37 µM (inactive)	31.6 µM (inactive)	33.7 µM (inactive)	33.4 µM (inactive)	46.5 µM (inactive)	39.7 µM (inactive)	30.7 µM (inactive)		30.9 µM (inactive)
O=c1c(-c2ccccc2Cl)coc2cc(F)ccc12	30.4 µM (inactive)	52.6 µM (inactive)		22.2 µM (inactive)	22.5 µM (inactive)	13.2 µM (inactive)	21.7 µM (inactive)	2.1 µM (inactive)	23.4 µM (inactive)	37.3 µM (inactive)	10.6 µM (inactive)	> 100 µM (inactive)		19.4 µM (inactive)	63.5 µM (inactive)	22.9 µM (inactive)	17.5 µM (inactive)	18.2 µM (inactive)	7.67 µM (inactive)	23.9 µM (inactive)
O=C(O)CCCN/C(=C1\C(=O)C(=O)N(c2ccccc2)C1=O)c1ccccc1	> 100 µM (inactive)	> 100 µM (inactive)	> 100 µM (inactive)	> 100 µM (inactive)	> 100 µM (inactive)	> 100 µM (inactive)	> 100 µM (inactive)	> 100 µM (inactive)	> 100 µM (inactive)	> 100 µM (inactive)	> 100 µM (inactive)	37.2 µM (inactive)	> 100 µM (inactive)	> 100 µM (inactive)	> 100 µM (inactive)	> 100 µM (inactive)	> 100 µM (inactive)	> 100 µM (inactive)		> 100 µM (inactive)
CCC(C)(C)C1CCC2c3c([nH]c4ccccc34)C3C(=O)N(c4ccc(OC)cc4)C(=O)C3C2C1 (centres undefined)	10.6 µM (inactive)	35.4 µM (inactive)	5.77 µM (inactive)	10.2 µM (inactive)	11.2 µM (inactive)	6.81 µM (inactive)	3.94 µM (inactive)	11 µM (inactive)	16.5 µM (inactive)	10.5 µM (inactive)	7.16 µM (inactive)	16.7 µM (inactive)		20.8 µM (inactive)	25.9 µM (inactive)	25.6 µM (inactive)	16.2 µM (inactive)	54.7 µM (inactive)		34 µM (inactive)
CC/C=C/C(/C=C/C[C@]1(CC)C[C@H](CC)[C@H](CC(=O)O)OO1)CC (some centres undefined)	1.67 µM (inactive)	1.76 µM (inactive)		1.58 µM (inactive)	1.84 µM (inactive)	0.33 µM (active)	2.51 µM (inactive)	2.06 µM (inactive)	20.8 µM (inactive)	2.24 µM (inactive)	1.75 µM (inactive)	1.52 µM (inactive)	1.64 µM (inactive)	2.16 µM (inactive)	2.23 µM (inactive)	5.69 µM (inactive)	6.41 µM (inactive)	5.94 µM (inactive)	14.3 µM (inactive)	14.5 µM (inactive)
NC(=O)c1cc2ccccc2o/c1=N/O	> 100 µM (inactive)	32.2 µM (inactive)	> 100 µM (inactive)	> 100 µM (inactive)	> 100 µM (inactive)	> 100 µM (inactive)	29.2 µM (inactive)	54.1 µM (inactive)	> 100 µM (inactive)	> 100 µM (inactive)	61.4 µM (inactive)		> 100 µM (inactive)	> 100 µM (inactive)	> 100 µM (inactive)	> 100 µM (inactive)	> 100 µM (inactive)	35.8 µM (inactive)		> 100 µM (inactive)
Nc1ccccc1.O=C(O)C(C(F)(F)F)C(F)(F)F	> 100 µM (inactive)	> 100 µM (inactive)		> 100 µM (inactive)	> 100 µM (inactive)	> 100 µM (inactive)	> 100 µM (inactive)	> 100 µM (inactive)	> 100 µM (inactive)	> 100 µM (inactive)	> 100 µM (inactive)	> 100 µM (inactive)	> 100 µM (inactive)	> 100 µM (inactive)	> 100 µM (inactive)	> 100 µM (inactive)	> 100 µM (inactive)	68.5 µM (inactive)	> 100 µM (inactive)	> 100 µM (inactive)
